# Source: ChEMBL document CHEMBL1250549, “N-phenyl-N'-[4-(5H-pyrrolo[3,2-d]pyrimidin-4-yloxy)phenyl]ureas as novel inhibitors of VEGFR and FGFR kinases” (Bioorg Med Chem, 2010)
# How the values were obtained:
# [1] = biological target: Vascular endothelial growth factor receptor 2 (Homo sapiens, UniProt P35968); assay: Inhibition of His-tagged human VEGFR2 expressed in Sf9 cells
# [2] = biological target: T1, Fibroblast growth factor receptor 1 (Homo sapiens, UniProt P11362); assay: Inhibition of His-tagged human FGFR1 expressed in Sf9 cells
# T1 sequence (P11362 whole entry): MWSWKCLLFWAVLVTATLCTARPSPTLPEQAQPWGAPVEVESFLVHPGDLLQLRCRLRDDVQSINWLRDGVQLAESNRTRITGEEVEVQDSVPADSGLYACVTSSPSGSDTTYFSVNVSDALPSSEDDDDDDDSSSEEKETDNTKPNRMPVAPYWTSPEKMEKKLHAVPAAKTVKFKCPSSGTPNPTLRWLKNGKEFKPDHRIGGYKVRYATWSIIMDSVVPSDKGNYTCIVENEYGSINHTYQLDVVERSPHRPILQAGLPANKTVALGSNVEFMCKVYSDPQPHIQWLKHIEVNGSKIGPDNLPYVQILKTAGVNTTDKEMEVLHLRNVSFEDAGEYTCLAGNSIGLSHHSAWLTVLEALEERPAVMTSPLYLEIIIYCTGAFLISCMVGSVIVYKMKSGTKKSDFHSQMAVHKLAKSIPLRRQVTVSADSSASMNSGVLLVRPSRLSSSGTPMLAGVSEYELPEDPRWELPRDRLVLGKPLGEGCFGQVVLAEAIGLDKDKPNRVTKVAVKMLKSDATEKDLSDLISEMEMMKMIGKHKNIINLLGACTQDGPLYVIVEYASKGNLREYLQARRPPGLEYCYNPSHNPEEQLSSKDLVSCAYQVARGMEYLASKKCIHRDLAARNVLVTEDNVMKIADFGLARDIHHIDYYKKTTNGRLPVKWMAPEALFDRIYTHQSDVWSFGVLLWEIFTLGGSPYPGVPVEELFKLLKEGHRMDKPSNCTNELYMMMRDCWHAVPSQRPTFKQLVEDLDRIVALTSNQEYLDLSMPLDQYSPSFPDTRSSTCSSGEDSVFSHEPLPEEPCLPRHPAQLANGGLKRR
# [3] = biological target: T1, Fibroblast growth factor receptor 1; assay: Inhibition of FGFR1
# [4] = Inhibition of PDGFR
# Angiopoietin-1 receptor = Angiopoietin-1 receptor (Homo sapiens, UniProt Q02763); assay: Inhibition of Tie-2
# Angiopoietin-1 receptor, sequence (Q02763 whole entry): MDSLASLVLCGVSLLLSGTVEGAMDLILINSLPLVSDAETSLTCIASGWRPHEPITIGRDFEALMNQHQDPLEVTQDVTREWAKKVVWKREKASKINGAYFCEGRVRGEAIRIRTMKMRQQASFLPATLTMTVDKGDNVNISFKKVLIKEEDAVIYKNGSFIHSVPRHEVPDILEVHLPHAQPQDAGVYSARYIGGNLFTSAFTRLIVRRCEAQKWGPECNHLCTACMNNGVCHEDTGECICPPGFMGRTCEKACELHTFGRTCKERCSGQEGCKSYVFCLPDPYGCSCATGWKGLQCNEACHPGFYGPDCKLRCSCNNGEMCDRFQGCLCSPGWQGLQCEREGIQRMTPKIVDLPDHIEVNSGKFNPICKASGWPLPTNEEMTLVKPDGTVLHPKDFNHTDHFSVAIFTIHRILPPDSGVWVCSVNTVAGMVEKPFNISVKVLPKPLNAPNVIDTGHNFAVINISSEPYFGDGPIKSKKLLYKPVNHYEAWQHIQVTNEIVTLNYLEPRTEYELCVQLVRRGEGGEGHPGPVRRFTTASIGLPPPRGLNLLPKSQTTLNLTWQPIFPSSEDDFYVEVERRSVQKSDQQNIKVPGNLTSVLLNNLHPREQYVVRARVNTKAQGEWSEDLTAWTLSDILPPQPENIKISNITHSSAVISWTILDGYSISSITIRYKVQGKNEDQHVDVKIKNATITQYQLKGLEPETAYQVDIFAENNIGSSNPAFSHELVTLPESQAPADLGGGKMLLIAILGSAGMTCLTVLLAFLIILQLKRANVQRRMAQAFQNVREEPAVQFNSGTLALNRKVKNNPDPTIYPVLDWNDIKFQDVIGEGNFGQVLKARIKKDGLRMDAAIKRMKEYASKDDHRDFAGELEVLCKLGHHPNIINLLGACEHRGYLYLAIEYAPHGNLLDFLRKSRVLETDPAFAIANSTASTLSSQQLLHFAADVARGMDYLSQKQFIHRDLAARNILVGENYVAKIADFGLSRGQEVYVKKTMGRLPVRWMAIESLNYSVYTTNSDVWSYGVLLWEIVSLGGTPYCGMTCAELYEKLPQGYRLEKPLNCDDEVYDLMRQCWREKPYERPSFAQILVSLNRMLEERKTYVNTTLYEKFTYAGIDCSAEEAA
# [5] = Inhibition of VEGFR
# HUVEC [6] = assay: Antiproliferative activity against HUVEC cells assessed as inhibition of VEGF-stimulated proliferation after 5 days by WST-8 assay; details: Homo sapiens, 120 h
# [7] = Solubility of the compound at pH 6.8; format: physicochemical; details: buffer
# HUVEC [8] = assay: Antiproliferative activity against HUVEC cells assessed as inhibition of FGF-stimulated proliferation after 5 days by WST-8 assay; details: Homo sapiens, 120 h
# Vascular endothelial growth factor receptor 2, sequence (P35968 whole entry): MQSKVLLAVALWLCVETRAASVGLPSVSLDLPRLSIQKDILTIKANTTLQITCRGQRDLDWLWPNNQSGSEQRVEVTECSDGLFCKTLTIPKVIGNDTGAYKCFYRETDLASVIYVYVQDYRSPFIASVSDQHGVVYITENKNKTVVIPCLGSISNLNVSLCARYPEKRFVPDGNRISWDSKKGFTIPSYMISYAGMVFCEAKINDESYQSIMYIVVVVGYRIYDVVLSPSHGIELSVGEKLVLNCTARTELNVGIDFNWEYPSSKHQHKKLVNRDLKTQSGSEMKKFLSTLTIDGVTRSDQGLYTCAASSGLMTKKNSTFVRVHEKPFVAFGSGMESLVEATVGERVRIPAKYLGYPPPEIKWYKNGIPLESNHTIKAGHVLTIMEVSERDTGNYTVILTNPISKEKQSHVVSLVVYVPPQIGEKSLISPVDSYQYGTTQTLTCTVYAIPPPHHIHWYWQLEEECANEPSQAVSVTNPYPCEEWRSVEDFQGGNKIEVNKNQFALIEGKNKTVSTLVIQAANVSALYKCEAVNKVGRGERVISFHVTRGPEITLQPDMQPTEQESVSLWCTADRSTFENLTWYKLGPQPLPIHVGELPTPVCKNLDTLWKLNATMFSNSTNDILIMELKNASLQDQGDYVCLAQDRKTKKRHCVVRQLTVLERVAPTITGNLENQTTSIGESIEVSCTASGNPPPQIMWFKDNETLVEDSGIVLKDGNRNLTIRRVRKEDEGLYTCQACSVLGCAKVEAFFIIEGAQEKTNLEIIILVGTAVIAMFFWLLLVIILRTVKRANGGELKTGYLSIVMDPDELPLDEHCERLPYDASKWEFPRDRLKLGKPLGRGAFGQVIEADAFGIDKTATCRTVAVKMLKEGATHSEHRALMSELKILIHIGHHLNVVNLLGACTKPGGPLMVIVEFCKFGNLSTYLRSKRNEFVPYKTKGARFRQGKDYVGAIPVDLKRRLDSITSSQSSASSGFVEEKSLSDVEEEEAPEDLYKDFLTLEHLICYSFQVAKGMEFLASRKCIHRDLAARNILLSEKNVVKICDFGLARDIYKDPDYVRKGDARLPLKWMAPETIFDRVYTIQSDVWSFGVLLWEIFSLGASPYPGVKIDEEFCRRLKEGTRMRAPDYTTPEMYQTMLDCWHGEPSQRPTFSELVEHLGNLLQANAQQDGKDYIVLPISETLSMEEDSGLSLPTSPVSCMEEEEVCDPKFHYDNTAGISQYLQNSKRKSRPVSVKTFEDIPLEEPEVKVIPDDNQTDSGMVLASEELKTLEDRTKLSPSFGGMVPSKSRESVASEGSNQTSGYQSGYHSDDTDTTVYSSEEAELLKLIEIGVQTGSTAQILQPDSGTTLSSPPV
SMILES,IC50 [1],also measured
Cn1nc(C(C)(C)C)cc1NC(=O)Nc1ccc(Oc2ncnc3ccn(C)c23)cc1Cl,0.019 µM,–
Cn1ccc2ncnc(Oc3ccc(NC(=O)Nc4ccc(CN5CCOCC5)c(C(F)(F)F)c4)c(Cl)c3)c21,0.019 µM,–
Cn1ccc2ncnc(Oc3ccc(NC(=O)Nc4ccccn4)c(Cl)c3)c21,0.21 µM,IC50 [2]: > 10 µM
Cn1ccc2ncnc(Oc3ccc(NC(=O)Nc4cccnc4)c(Cl)c3)c21,0.23 µM,IC50 [2]: > 10 µM
Cn1c(CO)cc2ncnc(Oc3ccc(NC(=O)Nc4cccc(C(F)(F)F)c4)c(Cl)c3)c21,0.0097 µM,–
Cn1c(C(C)(C)O)cc2ncnc(Oc3ccc(NC(=O)Nc4cccc(C(F)(F)F)c4)c(Cl)c3)c21,0.018 µM,–
COCCn1ccc2ncnc(Oc3ccc(NC(=O)Nc4cccc(C(F)(F)F)c4)c(Cl)c3)c21,0.009 µM,–
Cn1ccc2ncnc(Oc3ccc(NC(=O)Nc4cc(CN5CCOCC5)cc(C(F)(F)F)c4)c(Cl)c3)c21,0.023 µM,–
Cn1ccc2ncnc(Oc3ccc(NC(=O)Nc4cc(C(C)(C)C)on4)c(Cl)c3)c21,0.0089 µM,–
Cn1ccc2ncnc(Oc3ccc(NC(=O)Nc4ccc(N5CCOCC5)c(C(F)(F)F)c4)c(Cl)c3)c21,0.061 µM,–
CN1CCC(Oc2ccc(NC(=O)Nc3ccc(Oc4ncnc5ccn(C)c45)cc3Cl)cc2C(F)(F)F)CC1,0.012 µM,–
Cn1ccc2ncnc(Oc3ccc(NC(=O)Nc4cnn(C(C)(C)C)c4)c(Cl)c3)c21,0.0076 µM,–
O=C(Nc1cccc(C(F)(F)F)c1)Nc1ccc(Oc2ncnc3ccn(CCOCCO)c23)cc1Cl,0.0027 µM,–
Cn1ccc2ncnc(Oc3ccc(NC(=O)Nc4ccncc4)c(Cl)c3)c21,0.65 µM,IC50 [2]: > 10 µM
COc1ccc(NC(=O)Nc2ccc(Oc3ncnc4ccn(C)c34)cc2Cl)cc1C(F)(F)F,0.0094 µM,–
Cn1ccc2ncnc(Oc3ccc(NC(=O)Nc4cccc(C(F)(F)F)c4)c(F)c3)c21,–,IC50 [3]: > 10 µM; IC50 [4]: < 0.1 µM; IC50 (Angiopoietin-1 receptor): < 0.1 µM; IC50 [2]: > 10 µM; IC50 [5]: < 0.1 µM
Cn1ccc2ncnc(Oc3ccc(NC(=O)Nc4cc(C(F)(F)F)ccn4)c(Cl)c3)c21,0.0027 µM,–
Cn1ccc2ncnc(Oc3ccc(NC(=O)Nc4cc(N5CCOCC5)cc(C(F)(F)F)c4)c(Cl)c3)c21,0.06 µM,–
Cn1ccc2ncnc(Oc3ccc(NC(=O)Nc4cnn(CC(F)(F)F)c4)c(Cl)c3)c21,0.004 µM,–
Cn1ccc2ncnc(Oc3ccc(NC(=O)Nc4cncc(C(F)(F)F)c4)c(Cl)c3)c21,0.0029 µM,–
COc1cc(NC(=O)Nc2ccc(Oc3ncnc4ccn(C)c34)cc2Cl)cc(C(F)(F)F)c1,0.02 µM,–
CN1CCN(Cc2ccc(NC(=O)Nc3ccc(Oc4ncnc5ccn(C)c45)cc3Cl)cc2C(F)(F)F)CC1,0.0093 µM,IC50 (HUVEC [6]): 0.038 µM; solubility [7]: 19 µg/mL; IC50 (HUVEC [8]): 0.02 µM
COCc1cc2ncnc(Oc3ccc(NC(=O)Nc4cccc(C(F)(F)F)c4)c(Cl)c3)c2n1C,0.014 µM,–
O=C(Nc1cccc(C(F)(F)F)c1)Nc1ccc(Oc2ncnc3ccn(CCO)c23)cc1Cl,0.004 µM,–
CN1CCN(Cc2cc(NC(=O)Nc3ccc(Oc4ncnc5ccn(C)c45)cc3Cl)cc(C(F)(F)F)c2)CC1,0.011 µM,–
Cn1ccc2ncnc(Oc3ccc(NC(=O)Nc4ccnc(C(F)(F)F)c4)c(Cl)c3)c21,0.0038 µM,–
Cn1ccc2ncnc(Oc3ccc(NC(=O)Nc4cccc(C(F)(F)F)c4)c(Cl)c3)c21,–,solubility [7]: 0.09 µg/mL; IC50 (HUVEC [8]): 0.23 µM
